Columns and labels:
[1] = biological target: T1, human RORγt ligand binding domain (RORγt LBD) (Homo sapiens, UniProt P51449); assay: RORγt ThermoFluor assay; conditions: estimated from thermal shift concentration response
T1 construct: His-tag (N); TurboTEV protease cleavage site (ENLYFQG) (N); made in house; host or cells: E. coli (pHIS1, a modified pET expression vector)
T1 sequence (P51449 with tags, fused parts or gaps): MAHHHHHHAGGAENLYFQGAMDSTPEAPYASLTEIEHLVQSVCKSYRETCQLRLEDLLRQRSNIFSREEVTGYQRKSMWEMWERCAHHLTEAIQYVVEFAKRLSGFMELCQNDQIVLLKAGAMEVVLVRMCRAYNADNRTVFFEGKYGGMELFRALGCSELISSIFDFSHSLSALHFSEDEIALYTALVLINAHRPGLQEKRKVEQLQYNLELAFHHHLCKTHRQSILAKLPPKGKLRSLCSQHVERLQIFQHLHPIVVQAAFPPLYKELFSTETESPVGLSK
Procedure, shortened: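 Thermal shift of RORγt LBD (0.065 mg/mL) with 60 μM 1,8-ANS in 100 mM Hepes pH 7.0, NaCl, GSH, 0.002% Tween-20, heated at 1° C/min. ANS fluorescence tracked versus temperature; ΔTm relative to DMSO wells. Compounds serially diluted 1:2 from 10 mM DMSO stock.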

full-length human RORγt = biological target: T2, full-length human RORγt (Homo sapiens, UniProt P51449); assay: RORγt (full-length human) Reporter Assay, Conditions A; type: cell-based; conditions: for IC50: HEK293T cells, GAL4-DBD-RORγt, luciferase, read-out: RORγt (FL) Reporter Assay A, IC50; for inhibition at 2 µM: read-out: RORγt (FL) Reporter Assay A, % inhibition (* at 2 μM), 2 μM compound concentration (footnote *); for inhibition at 6 µM: read-out: RORγt (FL) Reporter Assay A, % inhibition @ 6 μM, 6 μM compound
T2 construct: expressed in transfected cells; host or cells: HEK293T, transiently transfected with pCMV-BD-ROR
T2 sequence (P51449 1-497 isoform P51449-2): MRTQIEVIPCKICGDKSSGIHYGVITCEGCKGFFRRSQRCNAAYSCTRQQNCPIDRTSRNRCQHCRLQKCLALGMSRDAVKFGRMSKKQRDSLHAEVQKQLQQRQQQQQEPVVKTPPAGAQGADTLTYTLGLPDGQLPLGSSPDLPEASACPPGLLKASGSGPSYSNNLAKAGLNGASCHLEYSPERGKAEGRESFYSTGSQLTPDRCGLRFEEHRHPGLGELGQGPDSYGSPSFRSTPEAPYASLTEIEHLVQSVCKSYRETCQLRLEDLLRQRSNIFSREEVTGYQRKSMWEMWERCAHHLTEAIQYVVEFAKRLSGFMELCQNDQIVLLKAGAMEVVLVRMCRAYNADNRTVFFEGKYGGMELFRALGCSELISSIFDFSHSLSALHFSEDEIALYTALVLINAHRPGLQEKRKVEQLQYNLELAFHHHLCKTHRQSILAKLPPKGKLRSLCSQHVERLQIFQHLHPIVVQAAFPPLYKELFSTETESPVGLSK
Procedure, shortened: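 Reporter cells lysed after 16–20 h compound exposure; firefly and Renilla luciferase luminescence measured. Firefly signal normalised to DMSO and saturating reference compound, then to Renilla; IC50 from normalised data versus concentration, percent inhibition relative to DMSO.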

SMILES | Kd [1] [nM] | IC50 (full-length human RORγt) [nM] | inhibition at 2 µM (full-length human RORγt) [%] | inhibition at 6 µM (full-length human RORγt) [%] | inhibition at 0.67 µM (full-length human RORγt; 0.67 μM compound concentration, read-out: RORγt (FL) Reporter Assay A, % inhibition (** at 0.67 μM)) [%]
C[C@H](NS(=O)(=O)c1ccc(-c2sc(-c3nnc(CC(C)(C)O)o3)nc2C(=O)N2CCC(F)(F)CC2)c(OC(F)F)c1F)C(F)(F)F [Example 3/7, (S)-3-(Difluoromethoxy)-4-(4-(4,4-difluoropiperidine-1-carbonyl)-2-(5-(2-hydroxy-2-methylpropyl)-1,3,4-oxadiazol-2-yl)thiazol-5-yl)-2-fluoro-N-(1,1,1-trifluoropropan-2-yl)benzenesulfonamide] | 81 | 290 |  | 103 | 
CCN(CC)C(=O)c1nc(-c2nnc(C(C)(C)O)[nH]2)sc1-c1ccc(C(O)(C(F)(F)F)C(F)(F)F)c(Cl)c1Cl [Example 9, 5-(2,3-Dichloro-4-(1,1,1,3,3,3-hexafluoro-2-hydroxypropan-2-yl)phenyl)-N,N-diethyl-2-(5-(2-hydroxypropan-2-yl)-4H-1,2,4-triazol-3-yl)thiazole-4-carboxamide] | 32 | 120 | 99 |  | 
C[C@H](NS(=O)(=O)c1ccc(-c2sc(-c3nnco3)nc2C(=O)N2CCC(F)(F)CC2)c(Cl)c1Cl)C(F)(F)F [Example 4/5, (S)-2,3-Dichloro-4-(4-(4,4-difluoropiperidine-1-carbonyl)-2-(1,3,4-oxadiazol-2-yl)thiazol-5-yl)-N-(1,1,1-trifluoropropan-2-yl)benzenesulfonamide] | 12 | 52 |  | 110 | 
C[C@H]1CCCN1C(=O)c1nc(-c2nnc(C(C)(C)O)o2)sc1-c1ccc(OCC(O)(C(F)(F)F)C(F)(F)F)cc1C(F)(F)F [Example 6/24, (S)-(2-(5-(2-Hydroxypropan-2-yl)-1,3,4-oxadiazol-2-yl)-5-(4-(3,3,3-trifluoro-2-hydroxy-2-(trifluoromethyl)propoxy)-2-(trifluoromethyl)phenyl)thiazol-4-yl)(2-methylpyrrolidin-1-yl)methanone] | 11 | 130 | 96 |  | 
C[C@H](NS(=O)(=O)c1ccc(-c2sc(-c3nnc(C(C)(C)O)o3)nc2C(=O)N2CCC(F)(F)CC2)c(C(F)F)c1Cl)C(F)(F)F [Example 6/14, (S)-2-Chloro-3-(difluoromethyl)-4-(4-(4,4-difluoropiperidine-1-carbonyl)-2-(5-(2-hydroxypropan-2-yl)-1,3,4-oxadiazol-2-yl)thiazol-5-yl)-N-(1,1,1-trifluoropropan-2-yl)benzenesulfonamide] | 3.3 | 73 |  | 105 | 
CCN(CC)C(=O)c1nc(-c2nnc(C(N)=O)o2)sc1-c1ccc(S(=O)(=O)N[C@@H](C)C(F)(F)F)c(Cl)c1Cl [Example 5/1, (S)-5-(5-(2,3-Dichloro-4-(N-(1,1,1-trifluoropropan-2-yl)sulfamoyl)phenyl)-4-(diethylcarbamoyl)thiazol-2-yl)-1,3,4-oxadiazole-2-carboxamide] | 120 | 280 |  | 105 | 
CCN(C(=O)c1nc(-c2nnc(C(C)(C)O)o2)sc1-c1ccc(S(=O)(=O)N[C@@H](C)C(F)(F)F)c(Cl)c1Cl)C(C)C [Example 6/7, (S)-5-(2,3-Dichloro-4-(N-(1,1,1-trifluoropropan-2-yl)sulfamoyl)phenyl)-N-ethyl-2-(5-(2-hydroxypropan-2-yl)-1,3,4-oxadiazol-2-yl)-N-isopropylthiazole-4-carboxamide] | 1.7 | 38 |  | 113 | 
C[C@H](NS(=O)(=O)c1ccc(-c2sc(-c3nnc(CC(C)(C)O)o3)nc2C(=O)N2CCC(F)(F)CC2)c(Cl)c1Cl)C(F)(F)F [Example 3, (S)-2,3-Dichloro-4-(4-(4,4-difluoropiperidine-1-carbonyl)-2-(5-(2-hydroxy-2-methylpropyl)-1,3,4-oxadiazol-2-yl)thiazol-5-yl)-N-(1,1,1-trifluoropropan-2-yl)benzenesulfonamide] | 1.6 | 26 |  | 107 | 
CN(CC(F)(F)F)S(=O)(=O)c1ccc(-c2sc(-c3nnc(C(C)(C)O)o3)nc2C(=O)N2CCC(F)(F)CC2)c(Cl)c1F [Example 6/23, 3-Chloro-4-(4-(4,4-difluoropiperidine-1-carbonyl)-2-(5-(2-hydroxypropan-2-yl)-1,3,4-oxadiazol-2-yl)thiazol-5-yl)-2-fluoro-N-methyl-N-(2,2,2-trifluoroethyl)benzenesulfonamide] | 6000 | 2300 |  | 40 | 

More lines, now with the values ahead:

Kd [1] [nM] | IC50 (full-length human RORγt) [nM] | inhibition at 2 µM (full-length human RORγt) [%] | inhibition at 6 µM (full-length human RORγt) [%] | inhibition at 0.67 µM (full-length human RORγt; 0.67 μM compound concentration, read-out: RORγt (FL) Reporter Assay A, % inhibition (** at 0.67 μM)) [%] | SMILES
0.026 | 12 | 101 |  |  | C[C@H]1CCCCN1C(=O)c1nc(-c2noc(CC(C)(C)C(=O)O)n2)sc1-c1ccc(C(O)(C(F)(F)F)C(F)(F)F)c(Cl)c1Cl [Example 20, (S)-3-(3-(5-(2,3-Dichloro-4-(1,1,1,3,3,3-hexafluoro-2-hydroxypropan-2-yl)phenyl)-4-(2-methylpiperidine-1-carbonyl)thiazol-2-yl)-1,2,4-oxadiazol-5-yl)-2,2-dimethylpropanoic acid]
27 | 67 | 99 |  |  | CCN(CC)C(=O)c1nc(-c2nncn2CC(C)(C)O)sc1-c1ccc(C(O)(C(F)(F)F)C(F)(F)F)c(Cl)c1Cl [Example 9/1, 5-(2,3-Dichloro-4-(1,1,1,3,3,3-hexafluoro-2-hydroxypropan-2-yl)phenyl)-N,N-diethyl-2-(4-(2-hydroxy-2-methylpropyl)-4H-1,2,4-triazol-3-yl)thiazole-4-carboxamide]
31 | 120 |  | 103 |  | C[C@H](NS(=O)(=O)c1ccc(-c2sc(-c3noc(C(C)(C)O)n3)nc2C(=O)N2CCC(F)CC2)c(C(F)F)c1F)C(F)(F)F [Example 11/1, (S)-3-(Difluoromethyl)-2-fluoro-4-(4-(4-fluoropiperidine-1-carbonyl)-2-(5-(2-hydroxypropan-2-yl)-1,2,4-oxadiazol-3-yl)thiazol-5-yl)-N-(1,1,1-trifluoropropan-2-yl)benzenesulfonamide]
4.9 | 21 | 101 |  |  | C[C@H](NS(=O)(=O)c1ccc(-c2sc(-c3cc(C(C)(C)O)on3)nc2C(=O)N2CCC(F)CC2)c(Cl)c1Cl)C(F)(F)F [Example 13/1, (S)-2,3-Dichloro-4-(4-(4-fluoropiperidine-1-carbonyl)-2-(5-(2-hydroxypropan-2-yl)isoxazol-3-yl)thiazol-5-yl)-N-(1,1,1-trifluoropropan-2-yl)benzenesulfonamide]
2.8 | 31 |  |  | 106 | CCN(CC)C(=O)c1nc(-c2cc(C(C)(C)O)ncn2)sc1-c1ccc(S(=O)(=O)N[C@@H](C)C(F)(F)F)c(Cl)c1Cl [Example 17/2, (S)-5-(2,3-Dichloro-4-(N-(1,1,1-trifluoropropan-2-yl)sulfamoyl)phenyl)-N,N-diethyl-2-(6-(2-hydroxypropan-2-yl)pyrimidin-4-yl)thiazole-4-carboxamide]
0.0014 | 66 |  | 104 |  | CC[C@H](NS(=O)(=O)c1ccc(-c2sc(-c3noc(CC(C)(C)C(=O)O)n3)nc2C(=O)N2CCC(F)(F)CC2)c(C(F)F)c1Cl)C(F)(F)F [Example 10/1, (S)-3-(3-(5-(3-Chloro-2-(difluoromethyl)-4-(N-(1,1,1-trifluorobutan-2-yl)sulfamoyl)phenyl)-4-(4,4-difluoropiperidine-1-carbonyl)thiazol-2-yl)-1,2,4-oxadiazol-5-yl)-2,2-dimethylpropanoic acid]
0.023 | 10 | 98 |  |  | CC[C@H](NS(=O)(=O)c1ccc(-c2sc(-c3cccc(CC(C)(C)C(=O)O)n3)nc2C(=O)N2CC(F)(F)C[C@@H]2C)c(C(F)F)c1F)C(F)(F)F [Example 19/1, 3-(6-(4-((S)-4,4-Difluoro-2-methylpyrrolidine-1-carbonyl)-5-(2-(difluoromethyl)-3-fluoro-4-(N—((S)-1,1,1-trifluorobutan-2-yl)sulfamoyl)phenyl)thiazol-2-yl)pyridin-2-yl)-2,2-dimethylpropanoic acid]
